The nature of the experiment: Composition and Method Examples A-E: treatment of obese human subjects to incur or maintain weight loss. The format is in vivo. The method, then:
An obese human subject weighing 130 kg is treated by this method to incur weight loss. Specifically, once each day for a period of 6 months, the subject is administered, via intravenous injection, 15 ml of an aqueous solution comprising the following:
An obese human subject weighing 150 kg is subjected to a weight-reduction program that achieves weight loss with reduced adiposity through a combination of a restricted diet and increased exercise. Specifically, once each day for a period of 6 months after weight loss, the subject is administered, via intravenous injection, 15 ml of an aqueous solution comprising the following:
An obese human subject weighing 165 kg is subjected to a weight reduction program that achieves weight loss through a combination of restricted diet, increased exercise and subcutaneous injection daily of 15 mls of an aqueous solution comprising:
Once the desired weight loss has been achieved, the patient's weight loss is maintained through continuation of the intravenous injection once each day for an additional period of 6 months.
An obese human subject weighing 140 kg is treated by the present method to incur weight loss. Specifically, they are treated with an implantable subcutaneous pump that delivers 0.1 mg/kg of the compound of Example 31 over a 24 hour period. The pump contains a solution of the compound dissolved in a solution of 50% propylene glycol and 50% sterile water.
An obese person weighing 150 kg is treated by this method to incur weight loss. Specifically, they are treated with an oral tablet taken twice daily containing 300 mg of the compound in Example 29.

We go through 5 substances from patent US20060128613A1, “Melanocortin receptor ligands” (The Procter & Gamble Company, priority 2003, published 2006).

Regarding “3-(4-OHPh)propanoyl-(4-F-f)RW—NH2 [Example 88]”, under “Example C: obese human 165 kg, diet, exercise and daily subcutaneous injection of 15 ml, 5 mg/ml, then injection once each day for additional 6 months”, the “maintained weight loss and adiposity at the end of the treatment period” value is “maintained weight loss and reduced adiposity”.
Take “Ac-(L-4-Chloro-Phe)(D-4-Fluoro-Phe)RW—NH2 [Example 29]”: the “weight loss and adiposity after 12 months treatment” value (Example E: obese person 150 kg, oral tablet 300 mg twice daily, 12 months) was “weight loss and reduced adiposity”.
With “Ac-(L-4-Chloro-Phe)fRW(N-Me-Gly)-NH2 [Example 31]”, under “Example D: obese human 140 kg, implantable subcutaneous pump delivering 0.1 mg/kg over 24 hours, six months”, the “weight loss and adiposity after six-month treatment” value was “weight loss and reduced adiposity”.
Ac—YfHW—NH2 [Example 9]: where the note is “Example B: obese human 150 kg after diet and exercise weight loss, intravenous injection once each day for 6 months, 15 ml, 5 mg/ml”, the “maintenance of weight loss and adiposity at the end of the treatment period” value was “maintenance of weight loss and reduced adiposity”.
For Ac—YfRW—NH2 [Example 1], for the setting “Example A: obese human 130 kg, intravenous injection once each day for 6 months, 15 ml aqueous solution, 5 mg/ml”, the “weight loss at the end of the treatment period” value is “measurable weight loss”.
